Test results reported in ChEMBL document CHEMBL6096703 (J Med Chem, 2025).
Calls of active or inactive are those of the source. The calls are words filed in the database; no cut-off is given here.

Key:
DLD-1 = test: Inhibition of colony formation in BRCA2 knockout human DLD-1 cells assessed as reduction in survival rate incubated for 10 days by crystal violet staining based assay; format: functional, cell-based; conditions: dose 0.1-100 nM, time 10.0 day
[1] = target: T1, Poly [ADP-ribose] polymerase 2 (Homo sapiens, UniProt Q9UGN5); test: Inhibition of PARP2 (unknown origin) preincubated with compound for 10 mins followed by DNA and NAD+ addition and measured after 60 mins by chemiluminescence based envision reader analysis
T1 sequence (Q9UGN5 whole entry): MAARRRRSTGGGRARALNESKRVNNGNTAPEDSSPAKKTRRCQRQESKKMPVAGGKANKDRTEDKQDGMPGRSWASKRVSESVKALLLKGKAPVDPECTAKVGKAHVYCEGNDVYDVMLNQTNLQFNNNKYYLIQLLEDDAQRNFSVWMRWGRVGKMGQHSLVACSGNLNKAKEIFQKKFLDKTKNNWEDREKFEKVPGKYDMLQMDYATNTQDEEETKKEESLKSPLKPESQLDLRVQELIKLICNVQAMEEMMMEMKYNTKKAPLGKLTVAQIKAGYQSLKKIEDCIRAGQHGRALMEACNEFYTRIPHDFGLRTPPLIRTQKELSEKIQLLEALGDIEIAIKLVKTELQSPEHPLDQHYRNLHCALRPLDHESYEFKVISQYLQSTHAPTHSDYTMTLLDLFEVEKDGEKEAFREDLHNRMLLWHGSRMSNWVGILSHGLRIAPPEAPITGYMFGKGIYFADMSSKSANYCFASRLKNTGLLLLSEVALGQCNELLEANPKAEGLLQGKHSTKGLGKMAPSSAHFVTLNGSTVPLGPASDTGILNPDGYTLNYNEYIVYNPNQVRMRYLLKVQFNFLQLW

[2] = Cmax in male Balb/c mouse at 1 mg/kg, po measured upto 96 hrs by LC-MS/MS analysis; format: ADME, organism-based; conditions: in vivo
[3] = Clearance in male Balb/c mouse at 1 mg/kg, po measured upto 96 hrs by LC-MS/MS analysis; format: ADME, organism-based; conditions: in vivo, po, 1 mg/kg, 96 h
[4] = Tmax in male Balb/c mouse at 1 mg/kg, iv measured upto 96 hrs by LC-MS/MS analysis; format: ADME, organism-based; conditions: in vivo
[5] = Half life in male Balb/c mouse at 1 mg/kg, iv measured upto 96 hrs by LC-MS/MS analysis; format: ADME, organism-based; conditions: in vivo, iv, 1 mg/kg, 96 h
[6] = Cmax in rat at 2.5 mg/kg, iv measured upto 96 hrs by LC-MS/MS analysis; format: ADME, organism-based; conditions: in vivo
[7] = Tmax in rat at 2.5 mg/kg, po measured upto 96 hrs by LC-MS/MS analysis; format: ADME, organism-based; conditions: in vivo
[8] = Clearance in rat at 2.5 mg/kg, po measured upto 96 hrs by LC-MS/MS analysis; format: ADME, organism-based; conditions: in vivo
[9] = Apparent volume of distribution in rat at 2.5 mg/kg, iv measured upto 96 hrs by LC-MS/MS analysis; format: ADME, organism-based; conditions: in vivo, read-out: Vz
[10] = Apparent volume of distribution in rat at 2.5 mg/kg, po measured upto 96 hrs by LC-MS/MS analysis; format: ADME, organism-based; conditions: in vivo
[11] = target: T1, Poly [ADP-ribose] polymerase 2; test: Inhibition of PARP2 in PARP1 knockout human A549 cells preincubated with compound for 1 hr followed by H2O2 addition and measured after 5 mins by selective targeting PARylation inhibition assay; format: cell-based
MDA-MB-436 [12] = test: Induction of apoptosis in human MDA-MB-436 cells assessed as early apoptotic cells at 1 nM incubated for 3 days by Annexin V/ PI staining based flow cytometry (reference value: 12.8%); format: functional; conditions: time 3 day
MDA-MB-436 [13] = test: Induction of apoptosis in human MDA-MB-436 cells assessed as early apoptotic cells at 100 nM incubated for 3 days by Annexin V/ PI staining based flow cytometry (reference value: 12.8%); format: functional; conditions: time 3 day
MDA-MB-436 [14] = test: Induction of apoptosis in human MDA-MB-436 cells assessed as late apoptotic cells at 100 nM incubated for 3 days by Annexin V/ PI staining based flow cytometry (reference value: 6.57%); format: functional; conditions: time 3 day
MDA-MB-436 [15] = test: Induction of cell cycle arrest in human MDA-MB-436 cells assessed as accumulation of cells at S phase at 10 nM incubated for 3 days by PI staining based flow cytometric analysis (Rvb =18.94%); format: functional; conditions: time 3 day
MDA-MB-436 [16] = test: Induction of cell cycle arrest in human MDA-MB-436 cells assessed as accumulation of cells at G0/G1 phase at 10 nM incubated for 3 days by PI staining based flow cytometric analysis (Rvb =56.18%); format: functional; conditions: time 3 day
MDA-MB-436 [17] = test: Induction of cell cycle arrest in human MDA-MB-436 cells assessed as accumulation of cells at G0/G1 phase at 100 nM incubated for 3 days by PI staining based flow cytometric analysis (Rvb =56.18%); format: functional; conditions: time 3 day
MDA-MB-436 [18] = test: Induction of DNA damage in human MDA-MB-436 cells assessed as increase in gammaH2AX foci at 0.1 to 1000 nM incubated for 3 days by DAPI staining based immunofluorescence analysis; format: functional, cell-based; conditions: dose 0.1-1000 nM, time 3.0 day
MDA-MB-436 [19] = test: Antitumor activity against human MDA-MB-436 cells xenografted in female NOD/SCID mouse assessed as inhibition of tumor growth administered orally once every other day for 28 days; format: functional, cell-based; conditions: dose 0.3-3 mg/kg, route po, time 28.0 day
MDA-MB-436 [20] = test: Antitumor activity against human MDA-MB-436 cells xenografted in female NOD/SCID mouse assessed as tumor regression rate at 3 mg/kg, po administered once every other day for 28 days relative to control; format: functional; conditions: time 28 day
[21] = Toxicity in female NOD/SCID mouse xenografted with human MDA-MB-436 cells assessed as histological changes in spleen at 3 mg/kg, po administered once every other day for 28 days by H and E staining based analysis; format: organism-based; conditions: in vivo, 672 h, time 28 day
[22] = Toxicity in female NOD/SCID mouse xenografted with human MDA-MB-436 cells assessed as histological changes in kidney at 3 mg/kg, po administered once every other day for 28 days by H and E staining based analysis; format: organism-based; conditions: in vivo, 672 h, time 28 day
[23] = Acute toxicity in Kunming mouse assessed as change in body weight at 30 to 100 mg/kg administered via gavage once every other day for 14 days; format: organism-based; conditions: in vivo, po, 336 h, dose 30-100 mg/kg, time 14 day
[24] = Acute toxicity in Kunming mouse assessed as mortality at 30 to 100 mg/kg administered via gavage once every other day for 14 days; format: organism-based; conditions: in vivo, po, 336 h, dose 30-100 mg/kg, time 14 day
[25] = Acute toxicity in Kunming mouse assessed as change in heart structure at 300 mg/kg administered via gavage for 14 days by H and E staining based analysis; format: organism-based; conditions: in vivo, po, 336 h, time 14 day
[26] = Acute toxicity in Kunming mouse assessed as change in liver structure at 300 mg/kg administered via gavage for 14 days by H and E staining based analysis; format: organism-based; conditions: in vivo, po, 336 h, time 14 day
[27] = Acute toxicity in Kunming mouse assessed as change in cellular morphology of kidney at 100 mg/kg administered once every other day via gavage for 14 days by H and E staining based analysis; format: organism-based; conditions: in vivo, po, 336 h, time 14 day
[28] = Sub-acute toxicity in Kunming mouse assessed as change CK level at 100 to 300 mg/kg administered via gavage for 14 days; format: organism-based; conditions: in vivo, po, 336 h, dose 100-300 mg/kg, time 14 day
[29] = Sub-acute toxicity in Kunming mouse assessed as change LDH2 level at 100 to 300 mg/kg administered via gavage for 14 days; format: organism-based; conditions: in vivo, po, 336 h, dose 100-300 mg/kg, time 14 day
[30] = Sub-acute toxicity in Kunming mouse assessed as change UREAL level at 100 to 300 mg/kg administered via gavage for 14 days; format: organism-based; conditions: in vivo, po, 336 h, dose 100-300 mg/kg, time 14 day
[31] = target: Poly [ADP-ribose] polymerase 1 (Homo sapiens, UniProt P09874); test: Binding affinity to PARP1 (unknown origin) assessed as DNA trapping activity incubated for 1 hr by Envision 2105 plate reader analysis
Sequence of Poly [ADP-ribose] polymerase 1 (P09874 whole entry): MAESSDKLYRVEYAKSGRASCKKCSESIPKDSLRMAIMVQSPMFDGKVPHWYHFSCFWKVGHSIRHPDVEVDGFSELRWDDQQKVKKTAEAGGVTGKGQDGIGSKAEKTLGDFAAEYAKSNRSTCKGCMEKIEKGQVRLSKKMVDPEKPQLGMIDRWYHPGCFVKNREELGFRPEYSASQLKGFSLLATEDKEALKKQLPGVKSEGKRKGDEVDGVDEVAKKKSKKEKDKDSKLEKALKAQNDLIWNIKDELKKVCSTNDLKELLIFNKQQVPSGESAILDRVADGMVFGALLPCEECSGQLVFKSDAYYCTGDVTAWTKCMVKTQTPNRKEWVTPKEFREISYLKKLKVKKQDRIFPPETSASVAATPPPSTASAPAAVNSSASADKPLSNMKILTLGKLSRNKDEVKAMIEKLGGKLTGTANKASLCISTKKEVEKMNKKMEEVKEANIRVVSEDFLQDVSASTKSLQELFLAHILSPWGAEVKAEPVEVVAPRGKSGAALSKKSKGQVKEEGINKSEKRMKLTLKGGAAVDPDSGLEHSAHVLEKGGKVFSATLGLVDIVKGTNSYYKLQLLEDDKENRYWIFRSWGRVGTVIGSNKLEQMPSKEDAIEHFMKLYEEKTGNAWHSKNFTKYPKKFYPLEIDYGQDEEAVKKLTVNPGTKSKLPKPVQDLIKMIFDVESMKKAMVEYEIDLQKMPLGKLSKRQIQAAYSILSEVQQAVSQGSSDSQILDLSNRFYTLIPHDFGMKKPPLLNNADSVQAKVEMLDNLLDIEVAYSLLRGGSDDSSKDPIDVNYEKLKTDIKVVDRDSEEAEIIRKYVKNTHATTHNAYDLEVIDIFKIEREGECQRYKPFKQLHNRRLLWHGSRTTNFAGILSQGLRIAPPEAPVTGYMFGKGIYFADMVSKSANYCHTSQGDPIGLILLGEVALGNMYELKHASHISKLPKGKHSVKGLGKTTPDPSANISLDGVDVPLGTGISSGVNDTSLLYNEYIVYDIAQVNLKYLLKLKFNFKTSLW

[32] = Sub-acute toxicity in Kunming mouse assessed as change CK level at 30 to 100 mg/kg administered via gavage once every other day for 14 days; format: organism-based; conditions: in vivo, po, 336 h, dose 30-100 mg/kg, time 14 day
[33] = Sub-acute toxicity in Kunming mouse assessed as change CREA2 level at 30 to 100 mg/kg administered via gavage once every other day for 14 days; format: organism-based; conditions: in vivo, po, 336 h, dose 30-100 mg/kg, time 14 day
[34] = Sub-acute toxicity in Kunming mouse assessed as change LDH2 level at 30 to 100 mg/kg administered via gavage once every other day for 14 days; format: organism-based; conditions: in vivo, po, 336 h, dose 30-100 mg/kg, time 14 day
[35] = Sub-acute toxicity in Kunming mouse assessed as change UREAL level at 30 to 100 mg/kg administered via gavage once every other day for 14 days; format: organism-based; conditions: in vivo, po, 336 h, dose 30-100 mg/kg, time 14 day

For `CCc1cc2ncc(CN3CC=C(c4ccc(C#N)cn4)CC3)cc2[nH]c1=O`, the inhibition (DLD-1) was “Dose-dependent-effect”, the IC50 [1] was 122 nM and the Cmax [2] was 6630 ng/mL. It also gave a CL [3] of 0.17 mL/min/kg, a Tmax [4] of 4.8 min and a t1/2 [5] of 107.53 h. It also gave a Cmax [6] of 13900 ng/mL, a Tmax [7] of 8 h and a CL/F [8] of 0.167 mL/min/kg. It also gave a Vd [9] of 0.21 L/kg, a Vz [10] of 0.33 L/kg and an IC50 [11] of 5190 nM. It also gave an Activity (MDA-MB-436 [12]) of 17%, an Activity (MDA-MB-436 [13]) of 21.9% and an Activity (MDA-MB-436 [14]) of 9.92%. The Activity (MDA-MB-436 [15]) was 10.18%, the Activity (MDA-MB-436 [16]) was 60.25% and the Activity (MDA-MB-436 [17]) was 53.32%. For the same compound, the Activity (MDA-MB-436 [18]) was “Active”, the Activity (MDA-MB-436 [19]) was “Dose-dependent-effect” and the Activity (MDA-MB-436 [20]) was 79.8%. The Activity [21] was “Non-toxic”, the Activity [22] was “Non-toxic” and the Activity [23] was “Non-toxic”. For the same compound, the Activity [24] was “Non-toxic”, the Activity [25] was “Non-toxic” and the Activity [26] was “Non-toxic”. The Activity [27] was “Non-toxic”, the Activity [28] was “Non-toxic” and the Activity [29] was “Non-toxic”. The Activity [30] was “Non-toxic”, the EC50 [31] was 0.9 nM and the Activity [32] was “Non-toxic”. For the same compound, the Activity [33] was “Non-toxic”, the Activity [34] was “Non-toxic” and the Activity [35] was “Non-toxic”.
